Results as given in US6737383B1, “Herbicidal oxadiazolidines” (priority 1999, dated 2004).

Assays:
bedstraw = test: Test B pre/postemergence bedstraw; assay type: in vivo, Galium aparine; conditions: for Bedstraw plant response rating: scale of 0 to 10 where 0 is no effect and 10 is complete control
Summary of the method: (§1)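 Herbicidal effect was estimated by eye on a ten-point control scale after plants spent twelve to sixteen days in a greenhouse following soil or foliar treatment. Foliar sprays targeted plants at one to four leaves; all doses were formulated in a non-phytotoxic solvent with surfactant.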

blackgrass = test: Test B pre/postemergence blackgrass; assay type: in vivo, Alopecurus myosuroides; conditions: for Blackgrass plant response rating: scale of 0 to 10 where 0 is no effect and 10 is complete control
Summary of the method: as §1

surinam grass = test: Test B pre/postemergence surinam grass; assay type: in vivo, Brachiaria decumbens; conditions: for B. signalgrass plant response rating: scale of 0 to 10 where 0 is no effect and 10 is complete control
Summary of the method: as §1

cocklebur = test: Test B pre/postemergence cocklebur; assay type: in vivo, Xanthium strumarium; conditions: for Cocklebur plant response rating: scale of 0 to 10 where 0 is no effect and 10 is complete control
Summary of the method: as §1

corn = test: Test B pre/postemergence corn; assay type: in vivo, Zea mays; conditions: for Corn plant response rating: scale of 0 to 10 where 0 is no effect and 10 is complete control
Summary of the method: as §1

crabgrass = test: Test B pre/postemergence crabgrass; assay type: in vivo, Digitaria sanguinalis; conditions: for Crabgrass plant response rating: scale of 0 to 10 where 0 is no effect and 10 is complete control
Summary of the method: as §1

soybean = test: Test B pre/postemergence soybean; assay type: in vivo, Glycine max; conditions: for Soybean plant response rating: scale of 0 to 10 where 0 is no effect and 10 is complete control
Summary of the method: as §1

sugar beet = test: Test B pre/postemergence sugar beet; assay type: in vivo, Beta vulgaris; conditions: for Sugarbeets plant response rating: scale of 0 to 10 where 0 is no effect and 10 is complete control
Summary of the method: as §1

velvetleaf = test: Test B pre/postemergence velvetleaf; assay type: in vivo, Abutilon theophrasti; conditions: for Velvetleaf plant response rating: scale of 0 to 10 where 0 is no effect and 10 is complete control
Summary of the method: as §1

wheat = test: Test B pre/postemergence wheat; assay type: in vivo, Triticum aestivum; conditions: for Wheat plant response rating: scale of 0 to 10 where 0 is no effect and 10 is complete control
Summary of the method: as §1

wild oat = test: Test B pre/postemergence wild oat; assay type: in vivo, Avena fatua; conditions: for Wild oats plant response rating: scale of 0 to 10 where 0 is no effect and 10 is complete control
Summary of the method: as §1

purple nutsedge = test: Test B pre/postemergence purple nutsedge; assay type: in vivo, Cyperus rotundus; conditions: for Nutsedge plant response rating: scale of 0 to 10 where 0 is no effect and 10 is complete control
Summary of the method: as §1

rice = test: Test B flood test rice; assay type: in vivo, Oryza sativa; conditions: Pre-emergence
Summary of the method: (§2)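 Each value is a visual injury score relative to controls, with 10 meaning complete control and 0 no effect. Evaluation took place twelve to sixteen days after the 2-leaf-stage plants were treated and kept in the greenhouse.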

smallflower flatsedge = test: Test B flood test smallflower flatsedge; assay type: in vivo, Cyperus difformis; conditions: Pre-emergence
Summary of the method: as §2

duck salad = test: Test B flood test duck salad; assay type: in vivo, Heteranthera limosa; conditions: Pre-emergence
Summary of the method: as §2

bamyardgrass = test: Test B flood test barnyardgrass; assay type: in vivo, Echinochloa crus-galli; conditions: Pre-emergence
Summary of the method: as §2

[1] = Postemergence, Rate 250 g/ha, scale 0 to 10, 0 is no effect, 10 is complete control
[2] = Preemergence, Rate 62 g/ha, scale 0 to 10 (0 no effect, 10 complete control)
[3] = Postemergence, Rate 125 g/ha, scale 0 to 10, 0 is no effect, 10 is complete control
[4] = Rate 500 g/ha, Postemergence, scale 0 to 10, 0 no effect, 10 complete control
[5] = Rate 62 g/ha, flood test species, visual evaluation after twelve to sixteen days
[6] = Rate 125 g/ha, flood test species, scale 0 to 10 where 0 is no effect and 10 is complete control
[7] = Rate 250 g/ha, flood-test species, scale 0 to 10, 0 is no effect, 10 is complete control
[8] = Rate 500 g/ha, flood test species, scale 0 to 10 (0 no effect, 10 complete control)

CC(C)N(C(=O)n1oc(=O)n(C)c1=O)c1ccc(F)cc1F [Compound 368]
8: Plant response rating, Blackgrass (blackgrass; [1]) | Plant response rating, Blackgrass (blackgrass; [2]) | Plant response rating, Blackgrass (blackgrass; [4]) | B. signalgrass plant response rating (surinam grass; Preemergence, Rate 250 g/ha) | B. signalgrass plant response rating (surinam grass; Preemergence, Rate 500 g/ha) | Plant response rating, Crabgrass (crabgrass; [3]) | Plant response rating, Crabgrass (crabgrass; [1]) | Plant response rating, Crabgrass (crabgrass; [4]) | Soybean plant response rating (soybean; Preemergence, Rate 500 g/ha) | Sugarbeets plant response rating (0 to 10 scale) (sugar beet; Preemergence, Rate 125 g/ha) | Wheat plant response rating (wheat; Preemergence, Rate 250 g/ha)
2: Bedstraw plant response rating (0 to 10 scale) (bedstraw; Preemergence, Rate 125 g/ha) | Plant response rating, Cocklebur (cocklebur; [3]) | Soybean plant response rating (0 to 10 scale) (soybean; Preemergence, Rate 125 g/ha) | Plant response rating, Sugarbeets (sugar beet; [1]) | Nutsedge plant response rating (0 to 10 scale) (purple nutsedge; Preemergence, Rate 125 g/ha) | S. Flatsedge plant response rating (smallflower flatsedge; [7])
5: Plant response rating, B. signalgrass (surinam grass; [3]) | Plant response rating, Cocklebur (cocklebur; [4]) | Plant response rating, Corn (corn; [3]) | Plant response rating, Soybean (soybean; [3]) | Plant response rating, Soybean (soybean; [1]) | Plant response rating, Soybean (soybean; [4]) | Plant response rating, Wild oats (wild oat; [4]) | Rice plant response rating (rice; [8])
9: Blackgrass plant response rating (0 to 10 scale) (blackgrass; Preemergence, Rate 125 g/ha) | Wild oats plant response rating (0 to 10 scale) (wild oat; Preemergence, Rate 125 g/ha)
4: Plant response rating, Bedstraw (bedstraw; [1]) | Soybean plant response rating (soybean; Rate 62 g/ha, Postemergence) | Plant response rating, Velvetleaf (velvetleaf; [2]) | Plant response rating, Wheat (wheat; [1]) | Wheat plant response rating (0 to 10 scale) (wheat; Preemergence, Rate 125 g/ha) | Plant response rating, Wild oats (wild oat; [2]) | S. Flatsedge plant response rating (smallflower flatsedge; [8])
0: Plant response rating, Bedstraw (bedstraw; [2]) | Bedstraw plant response rating (bedstraw; Rate 62 g/ha, Postemergence) | B. signalgrass plant response rating (surinam grass; Rate 62 g/ha, Postemergence) | Plant response rating, Cocklebur (cocklebur; [2]) | Cocklebur plant response rating (0 to 10 scale) (cocklebur; Preemergence, Rate 125 g/ha) | Cocklebur plant response rating (cocklebur; Preemergence, Rate 250 g/ha) | Cocklebur plant response rating (cocklebur; Preemergence, Rate 500 g/ha) | Cocklebur plant response rating (cocklebur; Rate 62 g/ha, Postemergence) | Corn plant response rating (corn; Rate 62 g/ha, Postemergence) | Plant response rating, Soybean (soybean; [2]) | Plant response rating, Sugarbeets (sugar beet; [3]) | Sugarbeets plant response rating (sugar beet; Rate 62 g/ha, Postemergence) | Plant response rating, Velvetleaf (velvetleaf; [3]) | Velvetleaf plant response rating (velvetleaf; Rate 62 g/ha, Postemergence) | Plant response rating, Wheat (wheat; [2]) | Wheat plant response rating (wheat; Rate 62 g/ha, Postemergence) | Plant response rating, Wild oats (wild oat; [3]) | Wild oats plant response rating (wild oat; Rate 62 g/ha, Postemergence) | Plant response rating, Nutsedge (purple nutsedge; [3]) | Plant response rating, Nutsedge (purple nutsedge; [1]) | Plant response rating, Nutsedge (purple nutsedge; [2]) | Nutsedge plant response rating (purple nutsedge; Rate 62 g/ha, Postemergence) | Plant response rating, Nutsedge (purple nutsedge; [4]) | Plant response rating, Rice (0 to 10 scale, 0 is no effect, 10 is complete control) (rice; [5]) | Rice plant response rating (rice; [6]) | Rice plant response rating (rice; [7]) | Plant response rating, S. Flatsedge (0 to 10 scale, 0 is no effect, 10 is complete control) (smallflower flatsedge; [5]) | S. Flatsedge plant response rating (smallflower flatsedge; [6]) | Plant response rating, Ducksalad (0 to 10 scale, 0 is no effect, 10 is complete control) (duck salad; [5]) | Ducksalad plant response rating (duck salad; [6]) | Ducksalad plant response rating (duck salad; [7]) | Ducksalad plant response rating (duck salad; [8]) | Plant response rating, Barnyardgrass (0 to 10 scale, 0 is no effect, 10 is complete control) (bamyardgrass; [5]) | Barnyardgrass plant response rating (bamyardgrass; [6]) | Barnyardgrass plant response rating (bamyardgrass; [7])
1: Plant response rating, B. signalgrass (surinam grass; [2])
6: Plant response rating, B. signalgrass (surinam grass; [1]) | B. signalgrass plant response rating (0 to 10 scale, 0 is no effect, 10 is complete control) (surinam grass; Preemergence, Rate 125 g/ha) | Plant response rating, Corn (corn; [1]) | Corn plant response rating (0 to 10 scale) (corn; Preemergence, Rate 125 g/ha) | Crabgrass plant response rating (crabgrass; Rate 62 g/ha, Postemergence) | Plant response rating, Sugarbeets (sugar beet; [2]) | Plant response rating, Wheat (wheat; [4])
7: Plant response rating, Blackgrass (blackgrass; [3]) | Blackgrass plant response rating (blackgrass; Rate 62 g/ha, Postemergence) | Plant response rating, B. signalgrass (surinam grass; [4]) | Corn plant response rating (corn; Preemergence, Rate 250 g/ha) | Plant response rating, Corn (corn; [4]) | Soybean plant response rating (soybean; Preemergence, Rate 250 g/ha) | Velvetleaf plant response rating (0 to 10 scale) (velvetleaf; Preemergence, Rate 125 g/ha) | Plant response rating, Velvetleaf (velvetleaf; [4]) | Barnyardgrass plant response rating (bamyardgrass; [8])
3: Plant response rating, Cocklebur (cocklebur; [1]) | Plant response rating, Corn (corn; [2]) | Plant response rating, Sugarbeets (sugar beet; [4]) | Plant response rating, Velvetleaf (velvetleaf; [1]) | Plant response rating, Wheat (wheat; [3]) | Plant response rating, Wild oats (wild oat; [1])
10: Bedstraw plant response rating (bedstraw; Preemergence, Rate 250 g/ha) | Bedstraw plant response rating (bedstraw; Preemergence, Rate 500 g/ha) | Blackgrass plant response rating (blackgrass; Preemergence, Rate 250 g/ha) | Blackgrass plant response rating (blackgrass; Preemergence, Rate 500 g/ha) | Corn plant response rating (corn; Preemergence, Rate 500 g/ha) | Plant response rating, Crabgrass (crabgrass; [2]) | Crabgrass plant response rating (0 to 10 scale) (crabgrass; Preemergence, Rate 125 g/ha) | Crabgrass plant response rating (crabgrass; Preemergence, Rate 250 g/ha) | Crabgrass plant response rating (crabgrass; Preemergence, Rate 500 g/ha) | Sugarbeets plant response rating (sugar beet; Preemergence, Rate 250 g/ha) | Sugarbeets plant response rating (sugar beet; Preemergence, Rate 500 g/ha) | Velvetleaf plant response rating (velvetleaf; Preemergence, Rate 250 g/ha) | Velvetleaf plant response rating (velvetleaf; Preemergence, Rate 500 g/ha) | Wheat plant response rating (wheat; Preemergence, Rate 500 g/ha) | Wild oats plant response rating (wild oat; Preemergence, Rate 250 g/ha) | Wild oats plant response rating (wild oat; Preemergence, Rate 500 g/ha) | Nutsedge plant response rating (purple nutsedge; Preemergence, Rate 250 g/ha) | Nutsedge plant response rating (purple nutsedge; Preemergence, Rate 500 g/ha)
